Test results taken from patent publication US20250280861A1, “SWEETENER COMPOSITIONS” (Firmenich Incorporated, priority 2022, published 2025).

biological target: T1, hT1R2/T1R3 taste receptor (Homo sapiens, UniProt Q7RTX0+Q8TE23); assay: agonist activity against the hT1R2/T1R3 taste receptor (sweet receptor based assay); assay type: cell-based; settings: not given
T1 sequence (Q8TE23 20-839): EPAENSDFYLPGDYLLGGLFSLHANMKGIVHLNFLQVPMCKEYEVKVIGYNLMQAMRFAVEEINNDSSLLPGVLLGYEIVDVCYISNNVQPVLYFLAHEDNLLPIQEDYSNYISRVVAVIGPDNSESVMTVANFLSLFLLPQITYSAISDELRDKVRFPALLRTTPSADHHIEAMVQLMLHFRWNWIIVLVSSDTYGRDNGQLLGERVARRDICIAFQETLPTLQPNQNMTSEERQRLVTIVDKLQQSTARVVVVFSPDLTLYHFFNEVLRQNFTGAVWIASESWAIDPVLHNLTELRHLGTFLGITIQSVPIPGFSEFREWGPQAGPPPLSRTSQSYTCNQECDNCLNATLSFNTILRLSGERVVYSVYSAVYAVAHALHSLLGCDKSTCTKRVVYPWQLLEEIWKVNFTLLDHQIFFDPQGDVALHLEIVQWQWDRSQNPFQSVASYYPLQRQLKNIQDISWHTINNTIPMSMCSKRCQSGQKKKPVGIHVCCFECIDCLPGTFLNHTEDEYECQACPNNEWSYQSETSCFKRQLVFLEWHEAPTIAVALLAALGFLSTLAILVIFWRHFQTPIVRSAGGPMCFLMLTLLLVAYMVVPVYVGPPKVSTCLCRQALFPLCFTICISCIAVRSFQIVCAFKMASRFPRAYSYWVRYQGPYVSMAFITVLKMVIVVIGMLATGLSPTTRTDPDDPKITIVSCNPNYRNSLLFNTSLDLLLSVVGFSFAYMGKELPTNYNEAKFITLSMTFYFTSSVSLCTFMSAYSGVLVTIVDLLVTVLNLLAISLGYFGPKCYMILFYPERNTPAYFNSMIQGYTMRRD
T1 sequence (Q7RTX0 21-852): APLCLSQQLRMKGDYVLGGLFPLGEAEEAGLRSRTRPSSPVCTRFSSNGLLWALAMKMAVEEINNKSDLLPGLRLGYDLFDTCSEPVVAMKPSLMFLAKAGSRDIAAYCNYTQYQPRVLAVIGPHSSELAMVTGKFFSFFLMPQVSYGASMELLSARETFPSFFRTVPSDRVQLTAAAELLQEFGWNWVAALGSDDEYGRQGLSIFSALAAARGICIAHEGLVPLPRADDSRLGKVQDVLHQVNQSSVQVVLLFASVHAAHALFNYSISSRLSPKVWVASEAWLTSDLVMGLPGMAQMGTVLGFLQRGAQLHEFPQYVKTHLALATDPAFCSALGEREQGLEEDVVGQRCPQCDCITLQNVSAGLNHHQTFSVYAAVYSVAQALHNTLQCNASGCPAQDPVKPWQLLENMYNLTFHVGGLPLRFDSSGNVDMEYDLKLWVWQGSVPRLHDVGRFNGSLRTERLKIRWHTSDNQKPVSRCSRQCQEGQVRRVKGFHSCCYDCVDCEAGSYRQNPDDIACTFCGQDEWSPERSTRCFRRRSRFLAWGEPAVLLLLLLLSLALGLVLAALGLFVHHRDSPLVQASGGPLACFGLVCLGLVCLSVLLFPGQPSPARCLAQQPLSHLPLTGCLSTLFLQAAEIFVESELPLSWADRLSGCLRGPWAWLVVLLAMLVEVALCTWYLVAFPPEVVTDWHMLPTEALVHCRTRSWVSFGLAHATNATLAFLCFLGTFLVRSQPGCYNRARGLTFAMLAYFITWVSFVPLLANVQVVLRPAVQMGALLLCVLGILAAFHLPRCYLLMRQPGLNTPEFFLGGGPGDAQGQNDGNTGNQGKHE
Protocol: Compounds described in this application show moderate to potent agonist effect on the sweet receptor based assay. Potencies (EC50 values, e.g. see Tables 1-3) for agonist activity were measured against the hT1R2/T1R3 taste receptor. FIG. 1 exemplifies the data generated during the screening to determine EC50 values.

Row | Structure (SMILES) | EC50
1 | CC(C)(C(=O)NC1CC1)N1CCC(C#N)(c2cccc(F)c2F)CC1 [Compound 128] | 1.7 µM
2 | CCC(C)(C)NC(=O)C(C)(C)N1CCC(C#N)(c2cccc(F)c2F)CC1 [Compound 127] | 1.5 µM
3 | CC(C)(C)NC(=O)C(C)(C)N1CCC(C#N)(c2cccc(F)c2F)CC1 [Compound 126] | 2 µM
4 | CC(C)CNC(=O)C(C)(C)N1CCC(C#N)(c2cccc(F)c2F)CC1 [Compound 79, 2-(4-cyano-4-(2,3-difluorophenyl)piperidin-1-yl)-N-isobutyl-2-methylpropanamide] | 1.6 µM
5 | COCC(C(=O)NCC(C)C)N1CCC(C#N)(c2cccc(F)c2F)CC1 (stereo not drawn) [Compound 129] | 4.3 µM
6 | CC(C)CNC(=O)C(C)(C)N1CCC(C#N)(c2ccccc2)CC1 [Compound 124] | 2.2 µM
7 | COCCNC(=O)C(C)(C)N1CCC(C#N)(c2cccc(F)c2F)CC1 [Compound 125] | > 10 µM

same assay, conditions: agonist activity, hT1R2/T1R3; read-out: Sweet EC50

Row | Structure (SMILES) | EC50
8 | Cc1cccc(N2CCN(CC(=O)NC3CC3)CC2)c1C [Compound 31] | > 10 µM
9 | COCc1ccccc1C1=CCN(C(C)(C)C(=O)NCC(C)C)CC1 [Compound 64] | > 10 µM
10 | CC(C)CNC(=O)C(C)(C)N1CCN(c2cccc(F)c2)CC1 [Compound 44] | > 10 µM
11 | CC(C)CNC(=O)C(C)(C)N1CC=C(c2ccccc2)CC1 [Compound 56] | 3.3 µM
12 | Cc1cccc(N2CCN(C(C)C(=O)NCC(C)C)CC2)c1C (stereo not drawn) [Compound 29] | 1.4 µM
13 | CC(C)CNC(=O)C(C)(C)N1CCC(c2ccc(F)cc2)CC1 [Compound 97] | 6.2 µM
14 | CCCNC(=O)C(C)(C)N1CCN(c2cccc(C)c2C)CC1 [Compound 9] | 4.2 µM
15 | CC(C)CNC(=O)C(C)(C)N1CCN(c2ccc(F)cc2F)CC1 [Compound 37] | > 10 µM
16 | Cc1ccc(C)c(N2CCN(C(C)(C)C(=O)NCC(C)C)CC2)c1 [Compound 38] | > 10 µM
17 | Cc1cccc(N2CCN(C(C)(C)C(=O)NC3CCCCC3)CC2)c1C [Compound 13] | 9.4 µM
18 | CC(C)(C(=O)NC1CC1)N1CCC(c2ccccc2)CC1 [Compound 82] | 10.4 µM
19 | CC(C)CNC(=O)C(C)(C)N1CCN(c2cnccn2)CC1 [Compound 54] | > 10 µM
20 | CC(C)CNC(=O)C(C)(C)N1CC=C(c2ccccc2F)CC1 [Compound 57] | 1.6 µM
21 | CC(C)CNC(=O)C(C)(C)N1CCN(c2c(F)cccc2F)CC1 [Compound 42] | > 10 µM
22 | CC(C)CNC(=O)C(C)(C)N1CC=C(c2cccc(F)c2)CC1 [Compound 62] | 3 µM
23 | CC(C)CNC(=O)C(C)(C)N1CCN(c2ccccc2F)CC1 [Compound 2, 2-(4-(2-fluorophenyl)piperazin-1-yl)-N-isobutyl-2-methylpropanamide] | 6.8 µM
24 | Cc1ccncc1C1CCN(C(C)(C)C(=O)NCC(C)C)CC1 [Compound 107] | > 10 µM
25 | Cc1cccc(N2CCN(C(C)C(=O)NCC(C)C)CC2)c1C (stereo not drawn) [Compound 11] | 1.4 µM
26 | Cc1cccc(N2CCN(C(C)(C)C(=O)NCC(C)C)CC2)c1C [Compound 10] | 2.8 µM

Row | Structure (SMILES) | EC50
27 | Cc1cccc(N2CCN(C(C)(C)C(=O)NCC3CC3)CC2)c1C [Compound 14] | 5 µM
28 | CC(C)CNC(=O)C(C)(C)N1CC=C(c2ccccc2C(=O)N(C)C)CC1 [Compound 73] | > 10 µM
29 | Cc1cccc(N2CCN(C(C)(C)C(=O)NCC(C)(C)C)CC2)c1C [Compound 18] | > 10 µM
30 | Cc1ncccc1C1=CCN(C(C)(C)C(=O)NCC(C)C)CC1 [Compound 76] | > 10 µM
31 | COCc1cccc(C2=CCN(C(C)(C)C(=O)NCC(C)C)CC2)c1F [Compound 60] | 1.2 µM
32 | Cc1cccc(N2CCN(C(C)(C)C(=O)NC3CC3)CC2)c1C [Compound 1, N-cyclopropyl-2-(4-(2,3-dimethylphenyl)piperazin-1-yl)-2-methylpropanamide] | 4.3 µM
33 | CC(C)CNC(=O)C(C)(C)N1CC=C(c2cccc(C(=O)N(C)C)c2)CC1 [Compound 74] | > 10 µM
34 | CC(C)CNC(=O)C(C)(C)N1CCN(c2ccccn2)CC1 [Compound 53] | > 10 µM
35 | Cc1ccccc1C1CCN(C(C)(C)C(=O)NCC(C)C)CC1 [Compound 92] | 1.6 µM
36 | COCc1cccc(C2=CCN(C(C)(C)C(=O)NCC(C)C)CC2)c1 [Compound 63] | > 10 µM
37 | Cc1ccncc1C1=CCN(C(C)(C)C(=O)NCC(C)C)CC1 [Compound 75] | > 10 µM
38 | CC(C)CNC(=O)C(C)(C)N1CC=C(c2cccc(CN(C)C)c2)CC1 [Compound 71] | > 10 µM
39 | Cc1cccc(N2CCN(C(C)(C)C(=O)NCC3CCCCC3)CC2)c1C [Compound 16] | > 10 µM
40 | CC(C)CNC(=O)C(C)(C)N1CCN(c2cccc(F)c2CO)CC1 [Compound 51, 2-(4-(3-fluoro-2-(hydroxymethyl)phenyl)piperazin-1-yl)-N-isobutyl-2-methylpropanamide] | > 10 µM
41 | CC(C)CNC(=O)CN1CCC(c2ccccc2)CC1 [Compound 89] | 6.7 µM
42 | CC(C)CNC(=O)C(C)(C)N1CCN(c2cccc(CO)c2F)CC1 [Compound 35] | > 10 µM
43 | Cc1cccc(C)c1N1CCN(C(C)(C)C(=O)NCC(C)C)CC1 [Compound 40] | > 10 µM
44 | Cc1cccc(N2CCN(C(C)(C)C(=O)NC(C)(C)CO)CC2)c1C [Compound 24] | > 10 µM
45 | CCC(CC)NC(=O)C(C)(C)N1CCN(c2cccc(C)c2C)CC1 [Compound 20] | 5.6 µM

Row | Structure (SMILES) | EC50
46 | CC(C)(C(=O)NC1CC1)N1CCN(c2cccc(F)c2F)CC1 [Compound 33] | 3.9 µM
47 | CC(C)CNC(=O)C(C)(C)N1CCC(c2cccc(C(=O)N(C)C)c2)CC1 [Compound 106] | > 10 µM
48 | COc1cccc(C2CCN(C(C)(C)C(=O)NCC(C)C)CC2)c1F [Compound 100] | 1.4 µM
49 | CC(C)CNC(=O)C(C)(C)N1CCCC(c2ccccc2)CC1 (stereo not drawn) [Compound 117] | 10.9 µM
50 | COCc1ccccc1N1CCN(C(C)(C)C(=O)NCC(C)C)CC1 [Compound 47] | 6.8 µM
51 | CCC(CC)CNC(=O)C(C)(C)N1CCN(c2cccc(C)c2C)CC1 [Compound 21] | > 10 µM
52 | CC(C)CNC(=O)C(C)(C)N1CCC(c2ccccc2)CC1 [Compound 80, N-isobutyl-2-methyl-2-(4-phenylpiperidin-1-yl)propanamide] | 0.7 µM
53 | CC(C)CNC(=O)C(C)(C)N1CCN(c2cc(F)ccc2F)CC1 [Compound 39] | > 10 µM
54 | CC(C)CNC(=O)C(C)(C)N1CCC(c2ccccc2C(=O)N(C)C)CC1 [Compound 105] | > 10 µM
55 | Cc1cccc(N2CCN(C(C)C(=O)NC3CC3)CC2)c1C (stereo not drawn) [Compound 32] | > 10 µM
56 | Cc1cccc(N2CCN(C(C)(C)C(=O)NCC(C)C)CC2)c1F [Compound 36] | 2.4 µM
57 | CC(C)CNC(=O)C(C)(C)N1CCC(c2cccc(F)c2F)CC1 [Compound 94] | 0.14 µM
58 | CC(C)CNC(=O)C(C)(C)N1CCC2(CC1)COc1ccccc12 [Compound 122] | 2.5 µM
59 | Cc1ncccc1C1CCN(C(C)(C)C(=O)NCC(C)C)CC1 [Compound 108] | > 10 µM
60 | Cc1cccc(N2CCN(C(C)(C)C(=O)NCC(C)C)CC2)c1 [Compound 43] | > 10 µM
61 | CC(C)CNC(=O)C(C)(C)N1CCC(CO)(c2ccccc2)CC1 [Compound 119] | > 10 µM
62 | CC(C)CNC(=O)C(C)(C)N1CCC(c2cccc3c2OCO3)CC1 [Compound 104] | 1.7 µM
63 | Cc1cccc(N2CCN(C(C)(C)C(=O)NCC3CCCCCC3)CC2)c1C [Compound 17] | > 10 µM
